Laboratory results reported in PubChem BioAssay (NCI).
Several values for one entry are separate records, joined by “and”; a condition that tells them apart may be missing. Equal values may be shown once.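 Where inhibition never reached the appropriate level, the endpoint shown equals the highest concentration tested. Otherwise, values were interpolated linearly from a five-concentration, 48-hour dose response in 96-well plates. Here, GI50 denotes the concentration required for 50% inhibition of growth. TGI: concentration producing complete growth inhibition.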

Assays:
Test in all cases: NCI tumour cell line growth inhibition, 48 h
[1] = test system: TK-10 renal
[2] = test system: RPMI-8226 leukemia
[3] = test system: HCT-15 colon
[4] = test system: DMS 273 small cell lung
[5] = test system: SF-539 CNS
[6] = test system: KM20L2 colon
[7] = test system: KM12 colon
[8] = test system: SNB-78 CNS
[9] = test system: BT-549 breast
[10] = test system: PC-3 prostate

SMILES	TGI [1]	TGI [2]	TGI [3]	TGI [4] [µM]	TGI [5]	TGI [6] [µM]	TGI [7]	TGI [8] [µM]	GI50 [9] [µM]	GI50 [1]	GI50 [2]	GI50 [3]	GI50 [10]	TGI [10]	GI50 [7]	TGI [9]	GI50 [4] [µM]	GI50 [5]	GI50 [8] [µM]	GI50 [6] [µM]
c1ccc2c(c1)C1=NCCN1c1ccccc1-2	12 µM	6.97 µM	12.2 µM	4.88	9.69 µM	14.2	14.6 µM	18	–	–	–	–	–	–	–	–	–	–	–	–
CC(C)c1cc(OCC(O)CO)cc(C(C)C)c1 (stereo not drawn)	> 100 µM	–	> 100 µM	> 100	> 100 µM	> 100	> 100 µM	> 100	–	–	–	–	–	–	–	–	–	–	–	–
Cc1cccc2nc3cccc(C(=O)NCCN(C)C)c3nc12	5.84 µM	–	2.19 µM	4.17	1.21 µM	–	77.3 µM	12	–	–	–	–	–	–	–	–	–	–	–	–
CC(=O)Oc1ccc(C(c2ccc(OC(C)=O)cc2)c2ccccn2)cc1	> 100 µM	> 100 µM	> 100 µM	> 100	> 100 µM	> 100	> 100 µM	–	0.313	> 59.7 µM	30.3 µM	31.8 µM	16.3 µM	> 100 µM	39.2 µM	–	–	–	–	–
N#CC1=C(Cl)NC(Cl)=C(C#N)C1c1c(Cl)cccc1Cl	> 100 µM	46.4 µM	29.7 µM	34.5	> 100 µM	76.9	48.6 µM	> 100	–	–	–	–	–	–	–	–	–	–	–	–
O=S(=O)(C/C(=N\O)c1ccccc1)c1ccccc1	> 100 µM	> 100 µM	> 100 µM	> 100	> 100 µM	> 100	> 100 µM	> 100	–	–	–	–	–	–	–	–	–	–	–	–
O=C(/C=C1/Nc2ccc([N+](=O)[O-])cc2NC1O)c1cccc([N+](=O)[O-])c1 (stereo not drawn)	88.4 µM	–	> 100 µM	> 100	87.2 µM	96.2	–	> 100	–	–	–	–	–	–	–	–	–	–	–	–
Cc1cc2c(C)n(Cc3ccc(Cl)cc3Cl)nc2c(C(=O)O)c1C	> 100 µM	> 100 µM	> 100 µM	> 100	> 100 µM	> 100	–	> 100	–	–	–	–	–	–	–	–	–	–	–	–
O=[N+]([O-])c1ccc(Cl)cc1C1SCc2nc3ccccc3n21 (stereo not drawn)	> 100 µM	> 100 µM	> 100 µM	> 100	> 100 µM	> 100	> 100 µM	> 100	–	–	–	–	–	–	–	–	–	–	–	–
COC(=O)C1=CC2OC1(C)CCC2=O (stereo not drawn)	> 100 µM	> 100 µM	> 100 µM	> 100	> 100 µM	> 100	> 100 µM	–	–	–	–	–	–	–	–	–	–	–	–	–
O=C(O)/C=C/C(=O)N1C/C(=C\c2ccccc2)C(=O)/C(=C/c2ccccc2)C1	22.8 µM	6.22 µM	20.6 µM	20	26.7 µM	17.6	6.07 µM	24.2	–	–	–	–	–	–	–	–	–	–	–	–
O=C1C2Nc3ccccc3SC2C(=O)N1c1ccccc1C(F)(F)F (stereo not drawn)	> 100 µM	> 100 µM	65.5 µM	–	41 µM	–	> 100 µM	53.6	–	–	–	–	–	–	–	–	–	–	–	–
C[C@H]1C(=O)CC[C@]2(C)CCC(C(C)(C)O)CC12O (stereo partly drawn)	> 100 µM	> 100 µM	> 100 µM	> 100	> 100 µM	> 100	> 100 µM	> 100	–	–	–	–	–	–	–	–	–	–	–	–
CC12Oc3ccc4ccccc4c3CC1Cc1c(ccc3ccccc13)O2 (stereo not drawn)	> 100 µM	–	–	74.9	> 100 µM	> 100	> 100 µM	–	–	–	–	–	–	–	–	–	–	–	–	–
[Cl][Cd][Cl]	192 µM	8.71 µM and 71.5 µM and 61.8 µM	150 µM	31.2	47.4 µM and 62.5 µM	–	35.1 µM and 30.1 µM	56.9	–	90.5 µM	–	52.2 µM	10.5 µM	23.6 µM	17.9 µM and 9.62 µM	2.07 µM and 17.6 µM	15.1	4.51 µM and 19.5 µM and 18.9 µM	21.3	–
Cc1cccc(C(C)(C)C)c1NC(=O)CC1Sc2ccccc2NC1=O (stereo not drawn)	> 100 µM	46 µM	–	> 100	> 100 µM	> 100	> 100 µM	–	–	–	–	–	–	–	–	–	–	–	–	–
COc1ccc2c(c1OC)C(=O)c1cnccc1C2=O	> 100 µM	> 100 µM	> 100 µM	> 100	> 100 µM	> 100	> 100 µM	> 100	–	–	–	–	–	–	–	–	–	–	–	–
COc1ccc2nc(NC(=O)C(=O)C(C#N)c3ccc(Cl)c(Cl)c3)sc2c1 (stereo not drawn)	> 100 µM	> 100 µM	> 100 µM	> 100	> 100 µM	> 100	> 100 µM	> 100	–	–	–	–	–	–	–	–	–	–	–	–

SMILES	TGI [1]	TGI [2]	TGI [3]	TGI [4] [µM]	TGI [5]	TGI [6] [µM]	TGI [7]	TGI [8] [µM]	GI50 [9] [µM]	GI50 [1]	GI50 [2]	GI50 [3]	GI50 [10]	TGI [10]	GI50 [7]	TGI [9]	GI50 [4] [µM]	GI50 [5]	GI50 [8] [µM]	GI50 [6] [µM]
Cc1ccccc1-n1c(C)nc(-c2ccccc2)cc1=O	> 100 µM	–	> 100 µM	> 100	> 100 µM	> 100	> 100 µM	> 100	–	–	–	–	–	–	–	–	–	–	–	–
CN1CC(=O)N(C)c2nc[nH]c2C1=O	> 100 µM	> 100 µM	> 100 µM	> 100	> 100 µM	–	> 100 µM	> 100	–	–	–	–	–	–	–	–	–	–	–	–
Nn1c(N=Nc2c(O)[nH]c3c(Cl)cc(Cl)cc23)n[nH]c1=S	> 100 µM	> 100 µM	> 100 µM	–	> 100 µM	> 100	> 100 µM	> 100	–	–	–	–	–	–	–	–	–	–	–	–
O=C(O)CCSC(=O)Nc1ccc(N=Nc2ccccc2)cc1	> 100 µM	> 100 µM	> 100 µM	> 100	> 100 µM	> 100	> 100 µM	> 100	–	–	–	–	–	–	–	–	–	–	–	–
O=C(NS(=O)(=O)c1ccccc1)C(Cc1ccccc1)C(Cc1ccccc1)C(=O)NS(=O)(=O)c1ccccc1 (stereo not drawn)	> 100 µM	> 100 µM	–	> 100	> 100 µM	> 100	> 100 µM	–	–	–	–	–	–	–	–	–	–	–	–	–
OCCN1CCN(CC/C=C2\c3ccccc3Sc3ccc(Cl)cc32)CC1	19.4 µM and 5.62 µM	3.11 µM and 10.8 µM	3.64 µM and 4.29 µM	–	3.37 µM and 4.37 µM	–	6.02 µM and 7.34 µM	–	7.89	4.59 µM and 2.07 µM	1.17 µM and 3.12 µM	1.84 µM and 2 µM	2.75 µM and 2.96 µM	11.8 µM and 13.4 µM	2.73 µM and 2.81 µM	22.4 µM	–	1.61 µM and 2.05 µM	–	–
Nc1n[nH]c(CCc2nc(N)n[nH]2)n1	> 100 µM	> 100 µM	> 100 µM	> 100	> 100 µM	> 100	> 100 µM	> 100	–	–	–	–	–	–	–	–	–	–	–	–
CCC(Oc1ccc(OC)c2ccccc(=O)c12)C(=O)O (stereo not drawn)	> 100 µM	> 100 µM	> 100 µM	> 100	> 100 µM	–	> 100 µM	> 100	–	–	–	–	–	–	–	–	–	–	–	–
C=CCCCc1ccc(C(O)CCCCCCCCCCCC)o1 (stereo not drawn)	38.3 µM	44.7 µM	30.3 µM	–	40.6 µM	–	46 µM	–	22.6	21 µM	19.2 µM	15.5 µM	19.8 µM	46 µM	21.3 µM	43.3 µM	–	22.1 µM	–	–
O=C1c2nc3n(c2C(=O)c2c1nc1n2CCC1)CCC3	> 77.2 µM	> 100 µM	19.2 µM	12.7	8.77 µM and 13.5 µM	11.4	17 µM	31.1	–	–	9.83 µM	–	–	–	5.63 µM	–	–	–	–	–
CSc1cccc(NC(=O)OC2CCCCCCCCCCC2)c1	75.1 µM	54.4 µM	> 100 µM	–	63.7 µM	–	31.5 µM	–	–	–	–	–	–	> 100 µM	–	> 100 µM	–	–	–	–
COC(=O)C1=C(c2ccc3c(c2)OCO3)OC(c2cc(OC)c(OC)c(OC)c2)C1 (stereo not drawn)	> 100 µM	> 100 µM	15.2 µM	58.8	87.8 µM	–	–	> 100	–	–	–	–	–	–	–	–	–	–	–	–
Cc1ccc(-c2nc(N3CCCNCC3)c3oc(-c4ccc(C)cc4)nc3n2)cc1	3.96 µM	4.22 µM	2.96 µM	–	3.29 µM	–	3.2 µM	–	16.3	2.08 µM	1.89 µM	1.49 µM	1.51 µM	2.91 µM	1.72 µM	35 µM	–	1.76 µM	–	–
CCN(CC)CCOc1ccc(C(=O)/C=C\c2ccc(Cl)cc2Cl)cc1	29.2 µM	6.34 µM	5.16 µM	–	16.4 µM	–	4.16 µM	–	5.83	15.6 µM	1.94 µM	2.15 µM	4.1 µM	14.5 µM	1.92 µM	18.2 µM	–	4.05 µM	–	–
N#Cc1cc(S(=O)(=O)Nc2nc3ccccc3s2)c(SCc2ccccc2)cc1Cl	97.5 µM	> 100 µM	66.4 µM	–	34.8 µM	–	46.7 µM	–	20	37.3 µM	27.9 µM	28.5 µM	23.1 µM	51.1 µM	19.8 µM	48.9 µM	–	17.4 µM	–	–
CC1=C(C(=O)Nc2ccc([N+](=O)[O-])cc2)C(c2ccccc2F)C(C(=O)Nc2ccc([N+](=O)[O-])cc2)=C(C)N1	> 100 µM	27.5 µM	–	–	> 100 µM	29.8	53.9 µM	–	–	–	–	–	–	–	–	–	–	–	–	–
CC1(C)OC(=O)C=C([O-])O1.CC1(C)OC(=O)C=C([O-])O1.CC[O-].CC[O-].[Ti+4]	> 100 µM	> 100 µM	> 100 µM	–	> 100 µM	> 100	> 100 µM	> 100	–	> 100 µM	> 100 µM	> 100 µM	–	–	> 100 µM	–	–	> 100 µM	> 100	> 100
CCc1nc(N)nc(N)c1-c1ccc(Cl)c(N=CN(C)C)c1	> 100 µM	> 100 µM	> 100 µM	–	> 100 µM	–	> 100 µM	–	–	–	–	–	–	> 100 µM	–	> 100 µM	–	–	–	–
